Patent US20230295162A1 (EÖTVÖS LORÁND TUDOMÁNYEGYETEM, priority 2020, published 2023)

How the values were obtained:
[1] = system: LNCaP (prostate, carcinoma) cells; test: Cell viability assay, CellTiter-Glo (Example 21); type: cell-based, human; conditions: 72 h
Summary of the method: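 Flat-bottomed white 96 well plates received 1500 LNCaP cells per well, a density chosen to suit the cells' size and growth rate. Following compound treatment, viability was measured by CellTiter-Glo® luminescence per the manufacturer's protocol, with signal recorded on a BioTek Synergy 2 reader. GraphPad Prism 8.4.2 generated dose-response curves using a four-parameter, variable-slope non-linear regression model.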

[2] = system: Panc-1 (pancreas, carcinoma) cells; test: Cell viability assay, CellTiter-Glo (Example 21); type: cell-based, human; conditions: 72 h treatment
Summary of the method: (§1)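 Cells were seeded at optimized densities (Panc-1 750, FaDu 1000, Detroit 562 and MDA-MB-453 1500 cells/well), then treated with compound. Viability was read by CellTiter-Glo luminescence. Dose-response curves were fitted by four-parameter variable-slope non-linear regression.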

[3] = system: EBC-1 (lung, squamous cell carcinoma) cells; test: Cell viability assay, CellTiter-Glo (Example 21); type: cell-based, human; conditions: 72 h treatment
Summary of the method: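 The CellTiter-Glo luminescent cell viability assay (Promega) was used to test compound effects on EBC-1 cells. Cells were plated at 1000 cells/well on white flat-bottom 96 well plates, treated, then read for luminescence on a microplate reader. Dose-response curves were fitted by four-parameter variable-slope non-linear regression.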

[4] = system: Detroit 562 (pharynx, carcinoma) cells; test: Cell viability assay, CellTiter-Glo (Example 21); type: cell-based, human; conditions: 72 h treatment
Summary of the method: as §1

[5] = system: representative cell lines; test: Cytotoxicity on representative cell lines (summary statement); type: cell-based; conditions: Homo sapiens; summary range, ca.
[6] = system: PANC-1 (human pancreatic carcinoma) cells; test: Impedance-based viability assay (xCELLigence SP), long treatment; type: cell-based; conditions: 72 h, read-out: cytotoxicity expressed in IC50, PANC-1
From the text: (Gibco®/Invitrogen Corporation, New York, NY, USA).
Data obtained from each experiment represent mathematical averages.

[7] = system: MDA-MB-453 breast cancer cell line; test: CellTiter-Glo IC50 (Table 3); type: cell-based; conditions: Homo sapiens
Experimental: (§2) Some representative imipridones and ONC212 as reference were further tested on the following human malignant cell lines: PC3 and LNCap (prostate carcinoma); BxPC3, MiaPaCa2 and Panc1 (pancreatic cancer); A549, HCC827, H1993 and H520 (lung carcinoma); MDA-MB-453 and MDA-MB-231 (breast cancer) (see Table 2 and FIGS. 1-11).
(§3) Cell lines were maintained according to the instructions provided by ATCC (https://www.lgcstandards-atcc.org/) in a 5% CO2 humidified incubator maintained at 37° C. temperature. Effects of compounds on cell viability were measured via CellTiter-Glo® luminescent cell viability assay (Promega, Madison, WI, USA) Cells were plated at 1000 cells/well onto a flat-bottomed, white 96 well plate (BRANDplates, cat. no.: 781965). […] After the treatment, medium was removed and CellTiter-Glo® reagent was added. The luminescence signal was recorded using a microplate reader (BioTek Synergy 2 Multi-Mode Reader, BioTek, Winooski, VT, USA).
(§4) Cell viability data (% of untreated control cells) was evaluated with Microsoft Excel. Dose-response curves (using a non-linear regression model, log (inhibitor) vs response, variable slope) were generated and IC50 values were determined using Graph Pad Prism 5.02 software (GraphPad Software, San Diego, CA, USA).

[8] = system: MDA-MB-231 breast cancer cell line; test: CellTiter-Glo IC50 (Table 3); type: cell-based; conditions: Homo sapiens
Experimental: as §2, §3, §4

[9] = system: BxPC3 pancreatic cancer cell line; test: CellTiter-Glo IC50 (Example 19); type: cell-based; conditions: Homo sapiens, BXPC-3, 72 h
Summary of the method: (§5)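 1000 cells/well; 37° C, 5% CO2 humidified. Post-treatment: medium off, CellTiter-Glo on, luminescence read. % untreated control → variable-slope nonlinear fit → IC50.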

[10] = system: H1993 lung carcinoma cell line; test: CellTiter-Glo IC50 (Example 19); type: cell-based; conditions: Homo sapiens, NCI-H1993, 72 h
Summary of the method: as §5

[11] = system: PC3 human prostate cancer cell line; test: CellTiter-Glo IC50 (Example 19); type: cell-based; conditions: 72 h
Summary of the method: as §5

[12] = system: A549 lung carcinoma cell line; test: CellTiter-Glo IC50 (Example 19); type: cell-based; conditions: Homo sapiens, 72 h
Summary of the method: as §5

[13] = system: LNCap human prostate cancer cell line; test: CellTiter-Glo IC50 (Example 19); type: cell-based; conditions: 72 h
Summary of the method: as §5

[14] = system: H520 lung carcinoma cell line; test: CellTiter-Glo IC50 (Example 19); type: cell-based; conditions: Homo sapiens, NCI-H520, 72 h
Summary of the method: as §5

[15] = system: MiaPaCa2 pancreatic cancer cell line; test: CellTiter-Glo IC50 (Example 19); type: cell-based; conditions: Homo sapiens, MIA PaCa-2, 72 h
Summary of the method: as §5

[16] = system: HCC827 lung carcinoma cell line; test: CellTiter-Glo IC50 (Example 19); type: cell-based; conditions: Homo sapiens, 72 h
Summary of the method: as §5

[17] = system: FaDu (pharynx, squamous cell carcinoma) cells; test: Cell viability assay, CellTiter-Glo (Example 21); type: cell-based, human; conditions: 72 h treatment
Summary of the method: as §1

| Structure (SMILES) | LNCaP cell viability ([1]; 3.7 nM) | LNCaP cell viability ([1]; 11.1 nM) | LNCaP cell viability ([1]; 100 nM) | LNCaP cell viability ([1]; 300 nM) | Panc-1 (pancreas, carcinoma) cell viability (% of control) ([2]; 3.7 nM) | Panc-1 (pancreas, carcinoma) cell viability (% of control) ([2]; 11.1 nM) | Panc-1 (pancreas, carcinoma) cell viability (% of control) ([2]; 100 nM) | Panc-1 (pancreas, carcinoma) cell viability (% of control) ([2]; 300 nM) | EBC-1 (lung, squamous cell carcinoma) cell viability (% of control) ([3]; 3.7 nM) | EBC-1 (lung, squamous cell carcinoma) cell viability (% of control) ([3]; 11.1 nM) | EBC-1 (lung, squamous cell carcinoma) cell viability (% of control) ([3]; 100 nM) | EBC-1 (lung, squamous cell carcinoma) cell viability (% of control) ([3]; 300 nM) | Detroit 562 (pharynx, carcinoma) cell viability (% of control) ([4]; 3.7 nM) | Detroit 562 (pharynx, carcinoma) cell viability (% of control) ([4]; 11.1 nM) | Detroit 562 (pharynx, carcinoma) cell viability (% of control) ([4]; 100 nM) | Detroit 562 (pharynx, carcinoma) cell viability (% of control) ([4]; 300 nM) | melting point [°C] | IC50 [6] [nM] | IC50 [7] [nM] | IC50 [8] [nM] | other results |
| --- | --- | --- | --- | --- | --- | --- | --- | --- | --- | --- | --- | --- | --- | --- | --- | --- | --- | --- | --- | --- | --- |
| O=C1C2=C(CCN(Cc3cc(F)cc(F)c3)C2)N2CCN=C2N1Cc1ccc(C(F)(F)F)cc1 [I/30, 7-(3,5-Difluorobenzyl)-4-(4-(trifluoromethyl)benzyl)-2,4,6,7,8,9-hexahydroimidazo[1,2-a]pyrido[3,4-e]pyrimidin-5(1H)-one] | 29.6 ± 2.5 % of control | 15.0 ± 0.4 % of control | 11.4 ± 0.6 % of control | 11.3 ± 1.1 % of control | 100.8 ± 3.4 % of control | 54.4 ± 3.5 % of control | 46.4 ± 3.1 % of control | 49.1 ± 0.2 % of control | 76.4 ± 2.2 % of control | 24.8 ± 1.1 % of control | 21.3 ± 0.6 % of control | 20.1 ± 0.0 % of control | 31.9 ± 6.7 % of control | 27.0 ± 5.5 % of control | 24.7 ± 2.9 % of control | 28.7 ± 2.5 % of control | 168 | 4 | < 1 | < 1 | IC50 [5]: 3 to 8 nM; IC50 [9]: 4 nM; IC50 [10]: 4 nM; IC50 [11]: 2 nM; IC50 [12]: 4 nM; IC50 [13]: 2 nM; IC50 [14]: 3 nM; IC50 [15]: 3 nM; IC50 [16]: 5 nM |
| [N-]=[N+]=Nc1ccc(CN2C(=O)C3=C(CCN(Cc4cc(F)cc(F)c4)C3)N3CCN=C23)cc1 [I/107, 4-(4-Azidobenzyl)-7-(3,5-difluorobenzyl)-2,4,6,7,8,9-hexahydroimidazo[1,2-a]pyrido[3,4-e]pyrimidin-5(1H)-one] | 95.3 ± 2.3 % of control | 37.9 ± 3.3 % of control | 13.5 ± 0.7 % of control | 13.6 ± 0.6 % of control | 107.9 ± 11.5 % of control | 93.6 ± 8.1 % of control | 54.2 ± 0.6 % of control | 55.0 ± 3.2 % of control | 99.9 ± 2.5 % of control | 70.3 ± 0.9 % of control | 23.5 ± 1.0 % of control | 23.5 ± 2.5 % of control | 86.6 ± 5.7 % of control | 36.8 ± 5.1 % of control | 31.4 ± 2.9 % of control | 34.1 ± 6.5 % of control | 155.5 | 11 | 2 | 3 | FaDu (pharynx, squamous cell carcinoma) cell viability (% of control) ([17]; 3.7 nM): 98.6 ± 1.9 % of control; FaDu (pharynx, squamous cell carcinoma) cell viability (% of control) ([17]; 11.1 nM): 74.3 ± 4.2 % of control; FaDu (pharynx, squamous cell carcinoma) cell viability (% of control) ([17]; 100 nM): 24.6 ± 3.6 % of control; FaDu (pharynx, squamous cell carcinoma) cell viability (% of control) ([17]; 300 nM): 25.5 ± 4.3 % of control; IC50 [9]: 14 nM; IC50 [10]: 12 nM; IC50 [11]: 11 nM; IC50 [12]: 16 nM; IC50 [13]: 5 nM; IC50 [14]: 8 nM; IC50 [15]: 16 nM; IC50 [16]: 15 nM |
| [N-]=[N+]=Nc1cccc(CN2CCC3=C(C2)C(=O)N(Cc2ccc(C(F)(F)F)cc2)C2=NCCN23)c1 [I/111, 7-(3-Azidobenzyl)-4-(4-(trifluoromethyl)benzyl)-2,4,6,7,8,9-hexahydroimidazo[1,2-a]pyrido[3,4-e]pyrimidin-5(1H)-one] | 97.1 ± 2.6 % of control | 32.4 ± 2.3 % of control | 11.8 ± 0.7 % of control | 11.7 ± 0.7 % of control | 106.1 ± 7.3 % of control | 99.6 ± 1.4 % of control | 50.1 ± 2.0 % of control | 49.7 ± 1.2 % of control | 94.1 ± 3.0 % of control | 54.0 ± 6.5 % of control | 20.6 ± 0.6 % of control | 20.0 ± 0.0 % of control | 48.0 ± 21.7 % of control | 32.8 ± 3.7 % of control | 26.8 ± 2.8 % of control | 28.8 ± 3.8 % of control | 128.8 | 10 | < 1 | 1 | FaDu (pharynx, squamous cell carcinoma) cell viability (% of control) ([17]; 3.7 nM): 97.7 ± 3.9 % of control; FaDu (pharynx, squamous cell carcinoma) cell viability (% of control) ([17]; 11.1 nM): 66.8 ± 12.0 % of control; FaDu (pharynx, squamous cell carcinoma) cell viability (% of control) ([17]; 100 nM): 21.7 ± 5.4 % of control; FaDu (pharynx, squamous cell carcinoma) cell viability (% of control) ([17]; 300 nM): 22.1 ± 4.8 % of control; IC50 [9]: 13 nM; IC50 [10]: 6 nM; IC50 [11]: 7 nM; IC50 [12]: 8 nM; IC50 [13]: 5 nM; IC50 [14]: 6 nM; IC50 [15]: 10 nM; IC50 [16]: 12 nM |
